The NIST ThermoML archive (doi:10.1021/je501106d)

Details: for speed of sound: Brillouin scattering; for vapor or sublimation pressure: Closed cell (Static) method

CCCCCCC [heptane]
speed of sound [m/s], Liquid
Details | 1000 kPa | 2500 kPa | 4000 kPa | 5500 kPa | 7000 kPa | 8500 kPa
302.15 K | 1112.9 | 1126.4 | 1139 | 1152 | 1163.2 | 1174.3
318.15 K | 1054.1 | 1066.6 | 1079 | 1091 | 1102 | 1113
333.15 K | 997.8 | 1010 | 1022 | 1034 | 1045 | 1057
348.15 K | 940.3 | 952.9 | 965.3 | 977.6 | 989.7 | 1002
363.15 K | 881.6 | 895.3 | 908.8 | 922 | 934.9 | 947.6
378.15 K | 821.8 | 837.2 | 852.2 | 866.8 | 881 | 894.7
393.15 K | 760.8 | 778.7 | 795.8 | 812.2 | 827.9 | 842.9
408.15 K | 698.6 | 719.6 | 739.4 | 758.2 | 775.8 | 792.2
418.15 K | 656.6 | 680 | 701.9 | 722.4 | 741.5 | 759.1
428.15 K | 614 | 640.1 | 664.4 | 686.9 | 707.6 | 726.4
438.15 K | 570.9 | 600 | 626.9 | 651.6 | 674 | 694.3
448.15 K | 527.2 | 559.7 | 589.5 | 616.6 | 640.9 | 662.6
453.15 K | 505.2 | 539.5 | 570.8 | 599.1 | 624.5 | 647
458.15 K | 483.1 | 519.2 | 552.1 | 581.7 | 608.2 | 631.4
463.15 K | – | 498.9 | 533.4 | 564.4 | 592 | 616
468.15 K | – | 478.5 | 514.7 | 547.2 | 559.8 | 600.8
473.15 K | – | 458 | 496 | 530 | 543.9 | 570.6
478.15 K | – | 437.5 | 477.4 | 512 | 528.1 | 555.7
483.15 K | – | 416.9 | 458.7 | 495.7 | 512.3 | 540.9
488.15 K | – | 396.3 | 440 | 478.7 | 496.7 | 526.3
493.15 K | – | 375.7 | 421.4 | 461.7 | – | –
498.15 K | – | 354.9 | 402.8 | 444.8 | – | –
503.15 K | – | 334.2 | 384.1 | 428 | – | –
508.15 K | – | 313.3 | 365.5 | 411.2 | – | –
513.15 K | – | 292.4 | 346.9 | 394.5 | – | –
518.15 K | – | 271.5 | 328.3 | 377.8 | – | –
523.15 K | – | – | 309.7 | 361.2 | – | –
528.15 K | – | – | 291.1 | 344.6 | – | –

Details | speed of sound, Gas [m/s] | speed of sound, Liquid [m/s] | vapor or sublimation pressure, Liquid [kPa]
302.15 K | – | 1108 | 12
318.15 K | – | 1042 | 31
333.15 K | – | 981.5 | 50
348.15 K | – | 921.1 | 84
363.15 K | – | 861.2 | 116
378.15 K | – | 801.6 | 152
393.15 K | – | 742.3 | 204
408.15 K | 170.3 | 683.1 | 286
418.15 K | 168.1 | 643.5 | 352
428.15 K | 165.9 | 603.9 | 441
438.15 K | 163.4 | 564 | 535
448.15 K | 160.5 | 523.9 | 654
453.15 K | 158.8 | 503.6 | 711
458.15 K | 157 | 483.3 | 780
463.15 K | 155 | 462.8 | 853
468.15 K | 152.8 | 442.2 | 935
473.15 K | 150.3 | 421.3 | 1022
478.15 K | 147.5 | 400.3 | 1114
483.15 K | 144.5 | 379 | 1203
488.15 K | 141.2 | 357.4 | 1307
493.15 K | 137.5 | 335.4 | 1409
498.15 K | 133.4 | 313 | 1532
503.15 K | 129 | 290.1 | 1649
508.15 K | 124.1 | 266.6 | 1781
513.15 K | 118.7 | 242.4 | 1910
518.15 K | 112.8 | 217.3 | 2049
523.15 K | 106.4 | 190.9 | 2201
528.15 K | 99.37 | 162.7 | 2358
533.15 K | 91.71 | 131.9 | 2519
536.15 K | 86.78 | 111.1 | 2630

CCCCCC [hexane]
speed of sound [m/s], Liquid
Details | 1000 kPa | 2500 kPa | 4000 kPa | 5500 kPa | 7000 kPa | 7500 kPa | 8500 kPa
300.15 K | 1080 | 1090 | 1102 | 1115 | 1129 | – | 1140
313.15 K | 1027 | 1038 | 1049 | 1062 | 1077 | – | 1092
328.15 K | 964.1 | 975.9 | 988.6 | 1002 | 1017 | – | 1032
343.15 K | 900.3 | 913.8 | 927.8 | 942.3 | 957.3 | – | 972.8
353.15 K | 857 | 872 | 887.1 | 902.5 | 918.1 | – | 934
363.15 K | 813.22 | 829.9 | 846.4 | 862.9 | 879.3 | – | 895.7
373.15 K | 768.8 | 787.4 | 805.6 | 823.4 | 840.9 | – | 857.9
383.15 K | 723.8 | 744.7 | 764.8 | 784.1 | 802.8 | – | 820.7
393.15 K | 678.3 | 701.6 | 723.8 | 744.9 | 765 | – | 783.9
403.15 K | 632.1 | 658.2 | 682.8 | 705.9 | 727.5 | – | 747.7
413.15 K | 585.4 | 614.5 | 641.7 | 667 | 690.4 | – | 711.9
423.15 K | 538.1 | 570.5 | 600.6 | 628.3 | 653.7 | – | 676.7
433.15 K | 490.1 | 526.2 | 559.3 | 589.7 | – | 617.3 | 642
443.15 K | – | 481.5 | 518 | 551.3 | 581.2 | – | 607.8
448.15 K | – | 459.1 | 497.4 | 532.1 | 563.3 | – | 590.9
453.15 K | – | 436.6 | 476.7 | 513 | 545.4 | – | 574.1
458.15 K | – | 414 | 456 | 493.9 | 527.7 | – | 557.4
463.15 K | – | 391.3 | 435.2 | 474.8 | 510.1 | – | 540.9
468.15 K | – | 368.5 | 414.5 | 455.8 | 492.5 | – | 524.5
473.15 K | – | 345.7 | 393.7 | 436.8 | 475 | – | 508.2
478.15 K | – | 322.8 | 372.9 | 417.9 | 457.6 | – | 492.1
483.15 K | – | – | 352.1 | 399 | 440.3 | – | 476.1
488.15 K | – | – | 331.3 | 380.1 | – | – | –
493.15 K | – | – | 310.5 | 361.3 | – | – | –
498.15 K | – | – | 289.6 | 342.5 | – | – | –
503.15 K | – | – | 268.8 | 323.7 | – | – | –
506.15 K | – | – | 256.2 | 312.5 | – | – | –

Details | speed of sound, Gas [m/s] | speed of sound, Liquid [m/s] | vapor or sublimation pressure, Liquid [kPa]
300.15 K | – | 1073 | 14
313.15 K | – | 993 | 63
328.15 K | – | 926.8 | 94
343.15 K | – | 882.7 | 122
353.15 K | – | 838.8 | 161
363.15 K | – | 794.9 | 214
373.15 K | – | 751 | 260
383.15 K | 178.6 | 707.2 | 331
393.15 K | 176.6 | 663.4 | 413
403.15 K | 174.3 | 619.5 | 512
413.15 K | 171.6 | 575.6 | 627
423.15 K | 168.3 | 531.6 | 762
433.15 K | 164.2 | 487.5 | 924
443.15 K | 159.4 | 443.1 | 1113
448.15 K | 156.6 | 420.7 | 1210
453.15 K | 153.5 | 398.2 | 1322
458.15 K | 150.1 | 375.6 | 1447
463.15 K | 146.4 | 352.8 | 1563
468.15 K | 142.2 | 329.8 | 1700
473.15 K | 137.6 | 306.4 | 1843
478.15 K | 132.5 | 282.6 | 1992
483.15 K | 126.9 | 258.2 | 2144
488.15 K | 120.6 | 233 | 2313
493.15 K | 113.4 | 206.4 | 2491
498.15 K | 105.3 | 177.3 | 2677
503.15 K | 95.91 | 142 | 2878
506.15 K | 89.34 | 109.7 | 2991

Cc1ccccc1 [toluene]
Liquid
Details | speed of sound [m/s]
323.15 K | 1200.8
423.15 K | 806
523.15 K | 425.5
